These results are taken from US20230027295A1, “FXIA INHIBITORS AND PREPARATION METHOD THEREFOR AND PHARMACEUTICAL USE THEREOF” (Shenzhen Salubris Pharmaceuticals Co., Ltd., priority 2019, published 2023).

Molecules are shown by their SMILES.

The series is described as follows: Cynomolgus monkey pharmacokinetics. Type of series: in vivo. Further details: AUC: concentration or dose not given beside the values. From the text:
Example 53: Investigation of the Pharmacokinetic Characteristics of the Compounds of the Present Invention
SD rats: male, 180-250 g, purchased from Guangdong Medical Laboratory Animal Center. Cynomolgus monkey: male, 4-6 kg, purchased from Guangzhou Chunsheng Biological Research Institute Co., Ltd. Beagle dog: male, 8-12 kg, developed in Kanglong Chemical (Ningbo) New Drug Technology Co., Ltd.
Reagents: DMSO (dimethyl sulfoxide), PEG-400 (polyethylene glycol 400), normal brine, heparin, acetonitrile, formic acid, and propranolol (internal standard) are commercially available.
Instrumentation: Thermo Fisher Scientific LC-MS (U300 UPLC, TSQ […] ULTRA triple quadrupole mass spectrometer).
The compound was weighed and dissolved in DMSO-PEG-400-physiological brine (5:60:35, v/v/v) system. After the rats/monkeys were administered intravenously or by gavage, 200 μL of venous blood was collected at 5 min (not collected when administered by gavage), 15 min, 30 min, 1 h, 2 h, 4 h, 6 h, 8 h, and 24 h in heparinized EP tubes, centrifuged at 12000 rpm for 2 min, and the plasma was frozen at −80° C. for testing. A certain amount of the test substance was precisely weighed and dissolved in DMSO to 1 mg/mL, which was used as a stock solution. An appropriate amount of compound stock solution was accurately pipetted and diluted with acetonitrile to prepare a standard series of solutions. 20 μL of each of the above standard series solutions were accurately pipetted, added with 180 μL of blank plasma, vortexed and mixed to prepare plasma samples equivalent to plasma concentrations of 1, 3, 10, 30, 100, 300, 1000, 3000 and 5000 ng/mL. Two-sample analysis was performed for each concentration to establish a standard curve. 20 μL of plasma was taken out, added with 200 μL of internal standard propranolol (5 ng/mL) in acetonitrile, vortexed and mixed. It was centrifuged at 4000 rpm for 5 min, and the supernatant was collected for LC-MS analysis. LC-MS detection conditions were as follows:
Chromatographic column: Thermo Scientific […] GOLD C-18 UPLC column, 100*2.1 mm, 1.9 μm.
Mobile phase: water (0.1% formic acid)-acetonitrile for gradient elution according to the table below.
After blood drug concentrations being detected by LC-MS, WinNonlin 6.1 software was used to calculate pharmacokinetic parameters by non-compartmental model method.

As usually defined, the AUC is concentration integrated over time. A word on the Cmax: it is the peak of the concentration-time curve. In general, Tmax refers to the time at which the peak concentration occurs. The term clearance denotes a measure of how efficiently the substance is removed, as volume per time. Usually half-life stands for the time needed for the level to fall by half in the phase considered. The compound `COc1nn([C@@H](Cc2ccccc2)C(=O)Nc2ccc(C(=O)O)cc2)c(=O)cc1-c1cc(Cl)ccc1C(C)=O` [Example 19, (S)-4-(2-(4-(2-acetyl-5-chlorophenyl)-3-methoxy-6-oxopyridazin-1(6H)-yl)-3-phenylpropanamido)benzoic acid] yielded a F (ig) of 17.3%. Moreover, where the note is “male, plasma, iv”, the area under the curve (AUC) came out at 1430 ng·h/mL, the Cmax stood at 2690 ng/mL, the Tmax was 0.083 h and the clearance was determined as 12 mL/min/kg. The compound also showed a half-life (male, plasma, iv) of 2.83 h. The Vd (male, plasma, iv, read-out: Vss) stood at 0.65 L/kg. For the same compound, where the note is “male, plasma, po, ig”, the AUC was determined as 2480 ng·h/mL, the Cmax came to 198 ng/mL, the Tmax amounted to 2.5 h and the half-life is 7.07 h.
